Data: BindingDB's records for doi:10.1016/j.ejmech.2017.11.032 (International Institute of Molecular and Cell Biology, 2018)

How the values were obtained:
[1] = Competitive inhibition of bacterial C-terminal His6-tagged ErmC' expressed in Escherichia coli BL21(DE3) in presence of [methyl-3H]SAM
[2] = Inhibition of bacterial C-terminal His6-tagged ErmC' (unknown origin) expressed in Escherichia coli BL21(DE3) assessed as decrease in rRNA methylation using [methyl-3H]AdoMet measured after 1 hr
[3] = Inhibition of bacterial C-terminal His6-tagged ErmC' expressed in Escherichia coli BL21(DE3) assessed as decrease of protein binding to [gamma-33P]ATP-labeled 32-nt oligonucleotide after 30 mins by filter binding assay
[4] = Non-competitive inhibition of bacterial C-terminal His6-tagged ErmC' (unknown origin) expressed in Escherichia coli BL21(DE3) in presence of [methyl-3H]SAM
[5] = Inhibition of bacterial C-terminal His6-tagged ErmC' expressed in Escherichia coli ER2566 assessed as decrease in rRNA methylation using [methyl-3H]AdoMet measured after 1 hr
[6] = Non-competitive inhibition of bacterial C-terminal His6-tagged ErmC' (unknown origin) expressed in Escherichia coli BL21(DE3) in presence of [methyl-3H]SAM; remark: listed apart in the source
[7] = Inhibition of bacterial ErmC' assessed as decrease in rRNA methylation preincubated for 15 mins followed by S-adenosyl-L-[methyl3H]methionine addition measured after 2 hrs by scintillation counting method

| SMILES | IC50 [2] [µM] | IC50 [6] [µM] | also measured |
| --- | --- | --- | --- |
| COC(=O)c1sc2ccccc2c1OS(=O)(=O)c1ccc(Cl)cc1 |  |  | IC50 [5]: 250 µM |
| Cc1ccc(Sc2cc(C)c(C#N)c(Sc3ccc(C)cc3)n2)cc1 |  |  | IC50 [5]: 180 µM |
| O=C1c2ccccc2C(=O)N1CN(CCCn1ccnc1)CN1C(=O)c2ccccc2C1=O |  |  | IC50 [5]: 300 µM |
| O=C(c1n[nH]c(=O)[nH]1)N1CCN(c2ccc(C(F)(F)F)cn2)CC1 |  | > 500 |  |
| O=C(c1cn(-c2ccccc2)nn1)N1CCN(c2ccc(C(F)(F)F)cn2)CC1 |  | 500 |  |
| O=C(c1cc(C2CC2)n[nH]1)N1CCN(c2ccc(C(F)(F)F)cn2)CC1 |  | > 500 |  |
| O=C(Nc1cccc(NCc2ccncc2)c1)c1ccccc1Cl |  | > 500 |  |
| O=C(Nc1ccn(CCc2ccncc2)n1)Nc1ccc(F)cc1F |  | 500 |  |
| Cc1occc1C(=O)Nc1nc(CC(=O)Nc2ccccc2)cs1 |  | 250 |  |
| O=C(Cc1cccc(F)c1)Nc1cccc(-c2ccn[nH]2)c1 |  | 500 |  |
| O=C(Cc1cn2ccsc2n1)Nc1cccc(N2CCCC2=O)c1 |  | > 500 |  |
| CN(C)c1ccc(CNC(=O)c2ccc(-n3cncn3)cc2)cc1 |  | > 500 |  |
| COc1ccc(C(=O)CSc2nc(O)cc(=O)[nH]2)cc1 |  | > 500 |  |
| O=C(NCc1cccc(Cn2ccnc2)c1)c1cc2ccccc2o1 | 500 |  |  |
| Clc1ccccc1Cn1nnc2c(N/N=C/c3cccnc3)ncnc21 |  |  | IC50 [5]: 250 µM |
| O=C(NCCOc1ccc2c(c1)OCO2)c1ccc2ccccc2n1 | 500 |  |  |
| CCCc1cc(C(=O)Nc2cccc(OCc3ccncc3)c2)[nH]n1 | 250 |  |  |
| Nc1nc(N)nc(CSc2nnc(NCc3ccccc3)s2)n1 | > 500 |  |  |
| Cc1nccc(C(=O)Nc2cc(NC(=O)c3ccccc3)ccc2C)n1 |  |  | IC50 [7]: 18 µM |
| O=C(NC1CCN(c2nc3ccccc3s2)CC1)c1ccncc1 | > 500 |  |  |
| FC(F)(F)c1ccc(N2CCN(Cc3c[nH]c(-c4ccccc4)n3)CC2)nc1 | > 500 |  |  |
| O=C(CSc1nc2cccnc2[nH]1)Nc1nccs1 | > 500 |  |  |

Now from value to compound, other results behind:

| IC50 [2] [µM] | IC50 [6] [µM] | SMILES | also measured |
| --- | --- | --- | --- |
| 299 |  | CC(=O)Nc1nc(C)c(-c2csc(Nc3cccc(O)c3)n2)s1 | Ki [1]: 354 µM |
| 110 |  | O=C(c1csc(Nc2ncccn2)n1)N1CCN(c2ccc(C(F)(F)F)cn2)CC1 | Ki [1]: 111 µM; Kd [3]: 0.04 µM |
| 100 |  | O=C(c1c[nH]c(=O)[nH]1)N1CCN(c2ccc(C(F)(F)F)cn2)CC1 | Ki [4]: 148 µM |
| 116 |  | Cc1cccc(Nc2nc(C(=O)N3CCN(c4ccc(C(F)(F)F)cn4)CC3)cs2)n1 | Kd [3]: 1.04 µM |
|  | > 500 | CC(=O)c1c[nH]c(C(=O)N2CCN(c3ccc(C(F)(F)F)cn3)CC2)c1 |  |
|  | > 500 | O=C(c1cnn[nH]1)N1CCN(c2ccc(C(F)(F)F)cn2)CC1 |  |
|  | > 500 | O=C(Nc1ccncc1)c1ccn(COc2ccc(F)c(Cl)c2)n1 |  |
|  | 250 | O=C(Nc1cccc(NC(=O)c2cccc(F)c2)c1)c1ccncc1 |  |
|  | > 250 | O=C(CSc1nnc2c(n1)[nH]c1ccccc12)Nc1ccccn1 |  |
|  | 500 | Nn1c(SCc2nc3ccccc3[nH]2)nnc1-c1ccncc1 |  |
| 500 |  | Cn1cnnc1-c1cccc(NC(=O)Cc2cccc(F)c2)c1 |  |
| > 250 |  | O=C(Nc1nccs1)c1cc(-c2ccccn2)nc2ccccc12 |  |
| > 500 |  | O=C(c1cc(Cl)c[nH]1)N1CCN(c2ncc(C(F)(F)F)cc2Cl)CC1 |  |
| 250 |  | O=C(NCCSc1ccccc1)c1ccc(-n2cncn2)cc1 |  |
| > 500 |  | FC(F)(F)c1ccc(N2CCN(Cc3cn4ccccc4n3)CC2)nc1 |  |
| 500 |  | CC(=O)Nc1ccc(S(=O)(=O)NCCc2ccncc2)cc1 |  |
